Data set [1] can be described thus: Inhibition of ST2/IL-33 (unknown origin) by AlphaLISA assay. Details: species or system Homo sapiens. (Bead proximity is the source of the signal in Alpha formats.)
Data set [2] in a line: Inhibition of ST2/IL-33 (unknown origin) expressed in HEK-Blue IL-33 cells assessed as decrease in NF-kappaB […]. Type of data set: cell-based. The conditions noted are these: Homo sapiens.
Data set [3] is described as follows: Metabolic stability in mouse liver microsomes assessed as half life. Type of data set: ADME, Microsome. For orientation: Liver microsomes are vesicles of endoplasmic reticulum, rich in cytochrome P450 enzymes.
For data set [4], the system named is LAD2. The data set is described as follows: Inhibition of IL-1beta secretion in IL-33/substance P-stimulated human LAD2 cells incubated for 24 hrs followed by 48/80 addition measured after 30 mins by ELISA. Type of data set: functional, cell-based. The conditions noted are these: dose 10-30 µM, time 24.5 hrs. On the technique in general: ELISA stands for enzyme-linked immunosorbent assay.

For data set [5], the system named is LAD2. The data set is described as follows: Inhibition of ST2 in IL-33-stimulated human LAD2 cells assessed as residual activity at 30 uM incubated for 24 hrs by flow cytometry (reference value: 24.18 %). In kind it is cell-based.
In data set [6] the test system is LAD2. The data set is described as follows: Inhibition of IL-1beta secretion in IL-33/substance P-stimulated human LAD2 cells at 50 uM incubated for 24 hrs followed by 48/80 addition measured after 30 mins by ELISA. Type of data set: functional, cell-based.

Active and inactive are the calls of the source.

The results in this text go back to ChEMBL document CHEMBL6071212, “Studies of Structure-Activity Relationship of 2-(Pyrrolidin-1ylmethyl)-1H-pyrrole-Based ST2 Inhibitors and Their Inhibition of Mast Cells Activation” (ACS Med Chem Lett, 2024).

With `Cc1cc(-c2ccc(CN3CCCC3c3cccc(N[C@@H]4CCOC4)c3)[nH]2)ccc1[N+](=O)[O-]` (some centres not stated), the half-maximal inhibitory concentration (IC50) (usually the concentration that inhibits the measured activity by half) in data set [1] was 75.6 µM.

In turn, `CN(C)c1ccc(C2CCCN2Cc2ccc(-c3ccc(C#N)cc3)[nH]2)cc1` (configuration not stated) yielded an IC50 in data set [1] of 33 µM.

For `CC(C)Oc1cc(-c2ccc(CN3CCCC3c3ccc(N(C)C)cc3)[nH]2)ccc1[N+](=O)[O-]` (configuration not stated), the IC50 in data set [2] amounted to 10.2 µM; in data set [1], 15.6 µM. Besides, the half-life (in general, the time needed for the level to fall by half in the phase considered) in data set [3] worked out at 1.91 min.

As for `Cc1ccc(-c2ccc(CN3CCCC3c3ccc(N(C)C)cc3)[nH]2)c([N+](=O)[O-])c1` (configuration not stated), the IC50 in data set [2] turned out to be 10.3 µM; in data set [1] it was 20 µM.

Take `Cc1cc(-c2ccc(CN3CCCC3c3cccc(N4CCC4)c3)[nH]2)ccc1[N+](=O)[O-]` (configuration not stated): in data set [1], the half-inhibitory concentration (IC50) worked out at 14.7 µM.

`CN(C)c1ccc(C2CCCN2Cc2ccc(-c3ccc([N+](=O)[O-])c(C(=O)O)c3)[nH]2)cc1` (configuration not stated) registered an IC50 in data set [1] of more than 100 µM.

`CN(C)c1ccc(C2CCCN2Cc2ccc(-c3ccc([N+](=O)[O-])cc3)[nH]2)cc1` (configuration not stated): the IC50 stood at 16.2 µM in data set [2] and 13 µM in data set [1].

In the case of `CN(C)c1ccc(C2CCCN2Cc2ncc(-c3ccc([N+](=O)[O-])cc3)[nH]2)cc1` (configuration not stated), 17.7 µM corresponded to half-maximal inhibition in data set [1] (IC50).

In data set [1], `CN(C)c1ccc(C2CCCN2Cc2ccc(-c3ccc([N+](=O)[O-])c(CO)c3)[nH]2)cc1` (configuration not stated) had an IC50 of 20.3 µM.

In turn, `Cc1cc(-c2ccc(CN3CCCC3c3cccc(N[C@H]4CCOC4)c3)[nH]2)ccc1[N+](=O)[O-]` (some centres not stated) displayed an IC50 in data set [1] of 56.2 µM.

As to `Cc1cc(-c2ccc(CN3CCCC3c3cccc(N(C)C)c3)[nH]2)ccc1[N+](=O)[O-]` (configuration not stated), the midpoint of inhibition in data set [1], the IC50, lay at 10 µM.

On to `CN(C)c1ccc(C2CCCN2Cc2ccc(-c3ccc([N+](=O)[O-])c(N4CCCC4)c3)[nH]2)cc1` (configuration not stated), for which the inhibition entry in the data set on LAD2 [4] is “Dose-Dependent Effect”. Besides, the IC50 in data set [2] stood at 7.19 µM; in data set [1], 7 µM. Moreover, the half-life in data set [3] was 1.47 min.

With `CN(C)c1ccc(C2SCCN2Cc2ccc(-c3ccc([N+](=O)[O-])cc3)[nH]2)cc1` (configuration not stated), the IC50 stood at 17.8 µM in data set [2] and 26.9 µM in data set [1].

`CN(C)c1ccc(C2CCCN2Cc2ccc(-c3ccc([N+](=O)[O-])cc3)o2)cc1` (configuration not stated) showed an IC50 in data set [1] of 17.4 µM.

As to `CCNC(=O)c1cc(-c2ccc(CN3CCCC3c3ccc(N(C)C)cc3)[nH]2)ccc1[N+](=O)[O-]` (configuration not stated), in data set [1], inhibition was half-maximal at 46.9 µM (IC50).

For the compound `CN(C)c1ccc(C2CCCN2Cc2cnc(-c3ccc([N+](=O)[O-])cc3)[nH]2)cc1` (configuration not stated), half-maximal inhibition in data set [1] (IC50) required 24 µM.

Turning to `CN(C)c1ccc(C2CCCN2Cc2ccc(-c3ccc([N+](=O)[O-])c(C#N)c3)[nH]2)cc1` (configuration not stated), the midpoint of inhibition in data set [1], the IC50, lay at 12.8 µM.

As to `CN(C)c1ccc(C2CCCN2Cc2cc(-c3ccc([N+](=O)[O-])cc3)[nH]n2)cc1` (configuration not stated), the IC50 in data set [1] is more than 100 µM.

Turning to `CN(C)c1ccc(C2CCCCN2Cc2ccc(-c3ccc([N+](=O)[O-])cc3)[nH]2)cc1` (configuration not stated), the IC50 turned out to be 8.47 µM in data set [2] and 16.2 µM in data set [1].

Consider `Cc1cc(-c2ccc(CN3CCCC3c3ccc(N4CCCC4)cc3)[nH]2)ccc1[N+](=O)[O-]` (configuration not stated), for which the 50% inhibitory concentration (IC50) in data set [2] came out at 11 µM; in data set [1], 7.48 µM. The half-life in data set [3] is 4.59 min.

Take `Cc1ccc([N+](=O)[O-])c(-c2ccc(CN3CCCC3c3ccc(N(C)C)cc3)[nH]2)c1` (configuration not stated): the figures for the concentration for half-maximal inhibition (IC50) in data set [2] and in data set [1] were 10.6 µM and 12.1 µM, respectively.

In turn, `CN(C)c1ccc(C2CCCN2Cc2ccc(-c3ccc([N+](=O)[O-])cc3)n2C)cc1` (configuration not stated) returned an IC50 in data set [1] of 10.7 µM.

On to `Cc1cc(-c2ccc(CN3CCCC3c3cccc(N4CCCC4)c3)[nH]2)ccc1[N+](=O)[O-]` (configuration not stated), for which the results for the IC50 in data set [2] and in data set [1] were 12.1 µM and 7.74 µM, respectively.

For `COC(=O)c1cc(-c2ccc(CN3CCCC3c3ccc(N(C)C)cc3)[nH]2)ccc1[N+](=O)[O-]` (configuration not stated), the IC50 in data set [2] worked out at 6.52 µM; in data set [1], 8.1 µM. Also, in data set [3], the half-life was determined as 2.2 min.

Turning to `CN(C)c1ccc(C2CCCN2Cc2ccc(-c3ccc([N+](=O)[O-])c(C(N)=O)c3)[nH]2)cc1` (configuration not stated), the 50% inhibitory concentration (IC50) in data set [1] was determined as 37.1 µM.

Compound `CCn1c(CN2CCCC2c2ccc(N(C)C)cc2)ccc1-c1ccc([N+](=O)[O-])cc1` (configuration not stated) showed an IC50 in data set [1] of 14.8 µM.

As to `CN(C)c1ccc(C2CCCN2Cc2c[nH]c(-c3ccc([N+](=O)[O-])cc3)c2)cc1` (configuration not stated), inhibition in data set [1] was half-maximal at 17.9 µM (IC50).

On to `Cc1cc(-c2ccc(CN3CCCC3c3ccc(N(C)C)cc3)[nH]2)ccc1[N+](=O)[O-]` (configuration not stated), for which the half-inhibitory concentration (IC50) in data set [2] is 9.57 µM; in data set [1] it was 8.12 µM. Moreover, the half-life in data set [3] was found to be 1.86 min.

As for `COc1cc(-c2ccc(CN3CCCC3c3ccc(N(C)C)cc3)[nH]2)ccc1[N+](=O)[O-]` (configuration not stated), the IC50 in data set [2] was found to be 7.15 µM; in data set [1], 12.2 µM. Moreover, the half-life in data set [3] came to 7.8 min. For the same compound, the Activity in the data set on LAD2 [5] was 19.8%.

`Cc1cc(-c2ccc(CN3CCCC3c3cccc(N4CCC(O)C4)c3)[nH]2)ccc1[N+](=O)[O-]` (configuration not stated) yielded a 50% inhibitory concentration (IC50) in data set [1] of 53.5 µM.

In data set [1], `CN(C)C(=O)c1cc(-c2ccc(CN3CCCC3c3ccc(N(C)C)cc3)[nH]2)ccc1[N+](=O)[O-]` (configuration not stated) yielded an IC50 of 25 µM.

Turning to `COc1cc(OC)c2c(=O)cc(-c3ccc(OC)c(OC)c3)oc2c1`, the inhibition entry in the data set with LAD2 [6] is “Active”.

Turning to `CN(C)c1ccc(C2CCCN2Cc2ccc(-c3ccc([N+](=O)[O-])cc3)s2)cc1` (configuration not stated), half-maximal inhibition in data set [1] (IC50) was put at 14.1 µM.

`CN(C)c1ccc(C2COCCN2Cc2ccc(-c3ccc([N+](=O)[O-])cc3)[nH]2)cc1` (configuration not stated) gave an IC50 in data set [1] of 80.2 µM.

Regarding `CN(C)c1ccc(C2COCCN2Cc2ccc(-c3ccc4c(c3)OCO4)[nH]2)cc1` (configuration not stated), the concentration for half-maximal inhibition (IC50) in data set [2] stood at 10.2 µM; in data set [1] it was 12.9 µM.

Consider `CN(C)c1ccc(C2CCCN2Cc2ccc(-c3ccc(C(N)=O)cc3)[nH]2)cc1` (configuration not stated), for which the IC50 in data set [1] was 79.6 µM.

Regarding `Cc1cc([N+](=O)[O-])ccc1-c1ccc(CN2CCCC2c2ccc(N(C)C)cc2)[nH]1` (configuration not stated), the half-maximal inhibitory concentration (IC50) amounted to 7.26 µM in data set [2] and 17.9 µM in data set [1].

For the compound `Cc1cc([N+](=O)[O-])ccc1-c1ccc(CN2CCCC2c2ccc(N(C)C)cc2)o1` (configuration not stated), the figures for the IC50 in data set [2] and in data set [1] were 52.5 µM and 7.77 µM, respectively. Moreover, in data set [3], the half-life came out at 3.64 min.
